Measurements as given in patent US20260364124A1, “ANTI-C. DIFFICILE SMALL MOLECULE METABOLITES FROM DIET AND GUT MICROBIOME” (The Children's Medical Center Corporation, priority 2023, published 2026).

Tested on: C. difficile M7404
Assay: In vitro polydatin bioactivation and C. difficile antagonism by conditioned (spent) media of B. uniformis AgshD
Assay type: cell-based, Clostridioides difficile
Conditions: polydatin 500 μM, 1/2-diluted, C. difficile M7404 growth 12 h (FIG. 5A)
Experimental: FIGS. 5A and 5B show microbiome-mediated polyphenol aglycone liberation. […] Step 2: Spent media was filter-sterilized. Step 3: C. difficile was grown in spent media from either vehicle or polydatin (top).
Generation of Bacteroides gene deletion mutants: Clean deletion mutants were created by allelic replacement whereby Bacteroides uniformis ATCC 8492 gshD (BACUNI_00919)was deleted. A modified pKNOCK-bla-ermGb suicide vector, pKNOCK-bla-ermGb_pheS*, that was previously engineered with a counter-selection system mediated by a variant phenylalanyl-tRNA synthetase (PheSA303G), lethal in the presence of 4-chloro-phenylalanine was leveraged. To generate deletion constructs, 1 kb regions flanking the genomic region-of-interest were amplified by PCR (Platinum SuperFi PCR Master Mix), purified, and cloned into the pKNOCK-bla-ermGb_pheS* plasmid in a three-piece ligation reaction. To mobilize resulting plasmids into Bacteroides, a triparental mating strategy was implemented. Overnight cultures of Bacteroides grown in BSG were diluted 50-fold into fresh pre-reduced BSG and grown to early exponential phase (OD600 ~0.1). The recipient strain was centrifuged at 4,000 rpm for 5 minutes and resuspended in 200 μL of 1× PBS. One-day-old E. coliDH5α lambda pir donor strain and E. coliDH5α helper strain with pRK 231 were scrapped from LB agar plates into 200 μL of 1× PBS. […]

OC[C@H]1O[C@@H](Oc2cc(O)cc(/C=C/c3ccc(O)cc3)c2)[C@H](O)[C@@H](O)[C@@H]1O [polydatin]
anti-C. difficile activity of conditioned media from B. uniformis gshD mutant grown with polydatin: ablated in B. uniformis AgshD
